Patent US20230391684A1, “NITROGEN FERTILIZER COMPOSITIONS BASED ON POLYPHOSPHATE CAGED STRUCTURE” (priority 2020, published 2023)

Assays:
[1] = From the text: The fertilizer composition will contain urea with reduced water solubility. […] Preferably no more than 30 to 60 wt. % of the urea is soluble. More preferably no more than 30 to 50 wt. % of urea is soluble.
XRD was of the granulated product which was powdered for recording of XRD.

[2] = Water leaching assay (2 g, 10 mL water, 8 min): water-soluble and water-insoluble nitrogen/urea; format: physicochemical; conditions: 2 g leached with 10 mL water in 8 min, dried residue
Method: Determination of water-insoluble nitrogen: 2 g of the product in powder form, is weighed into a filter paper (Whatman 1) placed in a funnel. It is leached with 10 mL water added dropwise from a burette within a period of 8 min. The wet residue is placed together with the filter paper, in a petridish and dried at 50° C. After drying, the residue is ground and used for analysis of nitrogen.
Determination of water-soluble nitrogen: 2 g of the product in powder form, is weighed into a filter paper (Whatman 1) placed in a funnel. It is leached with 10 mL water added dropwise from a burette within a period of 8 min. The filtrate is placed together with the filter paper, in a petridish and dried at 50° C. After drying, the dried mass is weighed. It is analyzed for N as described above.

total N from fertilizer soluble in water [1]: 100 wt. %
urea content of residue after leaching with water [2]: no urea was detectable
Compound: NC(N)=O [urea]
